According to patent US6420129B1, “Reagent composition for determination of electrolytes” (Toyo Boseki Kabushiki Kaisha, priority 1998, dated 2002):

Key:
[1] = molecular target: T1, Inactive α-amylase (from swine pancreas) (Sus scrofa, UniProt P00690); assay: Residual activity of α-amylase in test enzyme solutions after storage; type: biochemical; conditions: after storage at 35° C. for 7 days
T1 construct: α-amylase derived from the swine pancreas; from tissue; host or cells: swine pancreas
T1 sequence (P00690 16-511): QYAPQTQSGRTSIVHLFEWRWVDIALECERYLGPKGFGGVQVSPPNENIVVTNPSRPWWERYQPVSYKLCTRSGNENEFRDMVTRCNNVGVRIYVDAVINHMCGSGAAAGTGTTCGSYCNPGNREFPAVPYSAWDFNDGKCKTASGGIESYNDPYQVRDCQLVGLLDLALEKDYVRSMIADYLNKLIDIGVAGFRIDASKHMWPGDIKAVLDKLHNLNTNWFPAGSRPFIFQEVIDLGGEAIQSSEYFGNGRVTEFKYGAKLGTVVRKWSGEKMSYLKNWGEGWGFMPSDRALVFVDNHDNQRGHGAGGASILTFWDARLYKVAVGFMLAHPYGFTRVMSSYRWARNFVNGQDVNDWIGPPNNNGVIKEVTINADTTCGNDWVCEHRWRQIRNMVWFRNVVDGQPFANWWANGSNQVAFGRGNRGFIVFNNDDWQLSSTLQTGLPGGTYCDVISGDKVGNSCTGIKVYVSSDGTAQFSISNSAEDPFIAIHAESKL
Protocol: [table] In the test enzyme solutions of the reagents for the determination of calcium with the reagent formulations as described above in Example 1, glucosyl-α-cyclodextrin, maltosyl-α-cyclodextrin, glucosyl-β-cyclodextrin, or maltosyl-β-cyclodextrin was independently added as a cyclodextrin derivative at 12 mM. […] Instead of the cyclodextrin derivatives and the SH group containing compounds in the reagent formulations as described above in Example 1, glucose (100 mM), maltose (50 mM), maltotriose (30 mM), α-cyclodextrin (1.5 mM), β-cyclodextrin (1.5 mM), γ-cyclodextrin (1.5 mM), N-acetylcysteine (20 mM), or reduced glutathione (20 mM) was independently added to have the respective concentrations as shown in Table 3.

[2] = molecular target: T1, Inactive α-amylase (from swine pancreas); assay: Relative sensitivity in determination of calcium with 10 mg/dl calcium standard solution; type: biochemical; conditions: for sensitivity in the determination of the standard solution (in words): by addition of the agent, versus no addition; for Relative sensitivity (%) when sensitivity in case of no addition is taken as 100%: just after the preparation, 10 mg/dl calcium standard
Protocol: [table] In the test enzyme solutions of the reagents for the determination of calcium with the reagent formulations as described above in Example 1, glucosyl-α-cyclodextrin, maltosyl-α-cyclodextrin, glucosyl-β-cyclodextrin, or maltosyl-β-cyclodextrin was independently added as a cyclodextrin derivative at 0, 1.5, 3, 6, or 12 mM. To the test enzyme solutions containing 3 mM glucosyl-β-cyclodextrin was further added independently N-acetylcysteine or reduced glutathione at 2.5, 5, 10, or 20 mM, and the determination of calcium ions with a calcium standard solution was carried out as described below. According to the method as described below, the determination of the amount of calcium was carried out for test solutions just after the preparation with 10 mg/dl calcium standard solution as a sample, and the relative sensitivity (%) was determined under the respective reagent conditions when the sensitivity in the case of no addition of cyclodextrin derivatives was taken as 100%. B. Method for the Determination of the Amount of Calcium To 5.8 μl of a sample was added 180 μl of a test enzyme solution, and the mixture was pre-warmed for 5 minutes, to which 90 μl of a test substrate solution was further added to make the reaction start. […] The measuring apparatus used was HITACHI Automatic Analyzer model 7170. The measurement wavelength was 405 nm for the principal wavelength and 546 nm for the second wavelength. The measurement was carried out at 37° C. […] The test solutions thus prepared were used for the determination of the calcium standard solution in the same manner as described in Example 3.

[3] = molecular target: T1, Inactive α-amylase (from swine pancreas); assay: as above; type: biochemical
[4] = Visual observation of test solutions for deposition of crystals or white turbidity; type: physicochemical; parameters: key to turbidity (visual observation): +: turbidity found; −: no turbidity
Protocol: Among the reagents for the determination of calcium with the reagent formulations as described below, test enzyme solutions were prepared by the addition of glucosyl-α-cyclodextrin (G1αCD), maltosyl-α-cyclodextrin (G2αCD), glucosyl-p-cyclodextrin (G1βCD), or maltosyl-β-cyclodextrin(G2βCD) as a cyclodextrin derivative to have a concentration of 0, 1.5, 3, 6, or 12 mM. To the test enzyme solutions containing 3 mM glucosyl-β-cyclodextrin was further added independently N-acetylcysteine or reduced glutathione to have a concentration of 2.5, 5, 10, or 20 mM.
Both kinds of test solutions prepared by the above procedures were stored at 4° C. for 3 months. Visual observation of the test solutions was carried out just after the preparation and after the storage to examine whether there was found the deposition of crystals or the presence of white turbidity. The results are shown in table 1 for the visual observation just after the preparation and in Table 2 for the visual observation after the storage.
The test solutions were prepared in the same manner as described in Example 1, except that α-cyclodextrin (αCD) (1.5, 3, 6, or 12 mM), β-cyclodextrin (βCD) (1.5, 3, 6, or 12 mM), or γ-cyclodextrin (γCD) (1.5, 3, 6, or 12 mM) was independently added instead of the cyclodextrin derivatives and the SH group containing compounds in the above reagent formulations to have the respective concentrations as shown in Table 1. Both kinds of test solutions were stored at 4° C. for 3 months. Visual observation of the test solutions was carried out just after the preparation and after the storage to examine whether there was found the deposition of crystals or the presence of white turbidity. The results are shown in Table 1 for the visual observation just after the preparation and in Table 2 for the visual observation after the storage.

[5] = molecular target: T1, Inactive α-amylase (from swine pancreas); assay: Calcium linearity of test solutions just after preparation and after storage; type: biochemical; conditions: after the storage at 35° C. for 7 days
Protocol: To 5.8 μl of a sample was added 180 μl of a test enzyme solution, and the mixture was pre-warmed for 5 minutes, to which 90 μl of a test substrate solution was further added to make the reaction start. The change of absorbance per minute for 3 minutes was measured starting at the time when 2 minutes passed after the addition of the test substrate solution, and the amount of calcium in the sample was determined according to the two-point calibration curves for purified water and 10 mg/dl calcium standard solution.
The measuring apparatus used was HITACHI Automatic Analyzer model 7170. The measurement wavelength was 405 nm for the principal wavelength and 546 nm for the second wavelength. The measurement was carried out at 37° C.
[…] […] According to the method for the determination of the amount of calcium as described in Example 3, Sec. B, the calcium linearity was determined for test solutions just after the preparation and after the storage at 35° C. for 7 days with serial 10-fold dilutions of a 50 mg/dl aqueous calcium solution as samples.
Instead of the cyclodextrin derivatives and the SN-group containing compounds in the reagent formulations as described above in Example 1, β-cyclodextrin was added at 1.5 mM. The test solutions thus prepared were stored at 35° C. for 7 days and the calcium linearity was determined in the same manner as described in Example 3.

[6] = after storage at 4° C. for 3 months, agent added 1.5 mM
[7] = after storage at 4° C. for 3 months, agent added 3 mM
[8] = after storage at 4° C. for 3 months, agent added 6 mM
[9] = after storage at 4° C. for 3 months, agent added 12 mM
[10] = just after the preparation, agent added 1.5 mM
[11] = just after the preparation, agent added 3 mM
[12] = just after the preparation, agent added 6 mM
[13] = just after the preparation, agent added 12 mM

## OC[C@H]1O[C@H](O[C@H]2[C@H](O)[C@@H](O)C(O)O[C@@H]2CO)[C@H](O)[C@@H](O)[C@@H]1O (mixture of isomers) [maltose]
[1]; agent 50 mM
  remaining activity at 50000 µM: 73.5%
[2]
  sensitivity in the determination of the standard solution (in words): remarkably decreased
[3]; agent 6.3 mM
  Relative sensitivity (%) when sensitivity in case of no addition is taken as 100%: 99.7%
[3]; agent 12.5 mM
  Relative sensitivity (%) when sensitivity in case of no addition is taken as 100%: 89.3%
[3]; agent 25 mM
  Relative sensitivity (%) when sensitivity in case of no addition is taken as 100%: 83.9%
[3]; agent 50 mM
  Relative sensitivity (%) when sensitivity in case of no addition is taken as 100%: 70.1%

## OCC1OC(OCC2OC3OC4C(CO)OC(OC5C(CO)OC(OC6C(CO)OC(OC7C(CO)OC(OC8C(CO)OC(OC9C(CO)OC(OC2C(O)C3O)C(O)C9O)C(O)C8O)C(O)C7O)C(O)C6O)C(O)C5O)C(O)C4O)C(O)C(O)C1O (stereo not drawn) [G1βCD, glucosyl-β-cyclodextrin]
[4]; [6]
  turbidity (visual observation): −
[4]; [7]
  turbidity (visual observation): −
[4]; [8]
  turbidity (visual observation): −
[4]; [9]
  turbidity (visual observation): −
[4]; [10]
  turbidity (visual observation): −
[4]; [11]
  turbidity (visual observation): −
[4]; [12]
  turbidity (visual observation): −
[4]; [13]
  turbidity (visual observation): −
[1]; agent 12 mM
  Residual activity (%): 91.7%
[2]; agent 1.5 mM
  Relative sensitivity (%) when sensitivity in case of no addition is taken as 100%: 120.7%
[2]; agent 3 mM
  Relative sensitivity (%) when sensitivity in case of no addition is taken as 100%: 128.6%
[2]; agent 6 mM
  Relative sensitivity (%) when sensitivity in case of no addition is taken as 100%: 133.2%
[2]; agent 12 mM
  Relative sensitivity (%) when sensitivity in case of no addition is taken as 100%: 122.5%
[5]; agent 12 mM
  calcium linearity / quantitative reliability (in words): the quantitative reliability was kept at high concentrations

## OCC1OC(OC2C(CO)OC(OC3C(CO)OC(O)C(O)C3O)C(O)C2O)C(O)C(O)C1O (centres unmarked) [maltotriose]
[1]; agent 30 mM
  Residual activity (%): 77.3%
[2]
  sensitivity in the determination of the standard solution (in words): remarkably decreased
[3]; agent 3.8 mM
  Relative sensitivity (%) when sensitivity in case of no addition is taken as 100%: 47.1%
[3]; agent 7.5 mM
  Relative sensitivity (%) when sensitivity in case of no addition is taken as 100%: 24.3%
[3]; agent 15 mM
  Relative sensitivity (%) when sensitivity in case of no addition is taken as 100%: 7.4%
[3]; agent 30 mM
  Relative sensitivity (%) when sensitivity in case of no addition is taken as 100%: 4.6%

## OC[C@H]1O[C@@H]2O[C@H]3[C@H](O)[C@@H](O)[C@@H](O[C@H]4[C@H](O)[C@@H](O)[C@@H](O[C@H]5[C@H](O)[C@@H](O)[C@@H](O[C@H]6[C@H](O)[C@@H](O)[C@@H](O[C@H]7[C@H](O)[C@@H](O)[C@@H](O[C@H]8[C@H](O)[C@@H](O)[C@@H](O[C@H]1[C@H](O)[C@H]2O)O[C@@H]8CO)O[C@@H]7CO)O[C@@H]6CO)O[C@@H]5CO)O[C@@H]4CO)O[C@@H]3CO [βCD, β-cyclodextrin, reference compound]
[4]; [6]
  turbidity (visual observation): −
[4]; [7]
  turbidity (visual observation): −
[4]; [8]
  turbidity (visual observation): +
[4]; [9]
  turbidity (visual observation): +
[4]; after the storage at 4° C. for 3 months, at 3 mM
  turbidity of test enzyme solution (in words): became turbid
[4]; [10]
  turbidity (visual observation): −
[4]; [11]
  turbidity (visual observation): −
[4]; [12]
  turbidity (visual observation): +
[4]; [13]
  turbidity (visual observation): +
[4]; just after the preparation, at 6 mM
  turbidity of test enzyme solution (in words): had already become turbid
[1]; agent 1.5 mM
  Residual activity (%): 77.4%
[5]; agent 1.5 mM
  calcium linearity / quantitative reliability (in words): became deviated upward, and the quantitative reliability was decreased at high concentrations
